Laboratory results as given in the NIST ThermoML archive (doi:10.1021/je700297c).
Numbers after ± are expanded uncertainties.

Test: activity coefficient (dimensionless); of the first substance listed, at infinite dilution; xn = mol fraction of the nth substance listed
Settings: Liquid, Chromatography, x1 = 0

SMILES | activity coefficient (333 K) | activity coefficient (323 K) | activity coefficient (298 K) | activity coefficient (303 K)
c1ccccc1 [benzene] + CCCCCCCCCCCCCCCC(=O)[O-].CCCCn1cc[n+](C)c1 | 0.7 ± 0.1 | – | – | –
c1ccccc1 [benzene] + CCCCCCCCCCCCCCCCCC(=O)[O-].CCCCn1cc[n+](C)c1 | 0.7 ± 0.1 | 0.7 ± 0.1 | – | –
c1ccccc1 [benzene] + CCCCCCCC[n+]1ccn(C)c1.F[B-](F)(F)F | – | 0.6 ± 0.1 | 0.7 ± 0.1 | –
c1ccccc1 [benzene] + CCCC[n+]1ccn(C)c1.O=S(=O)([N-]S(=O)(=O)C(F)(F)F)C(F)(F)F | – | 0.8 ± 0.1 | – | –
c1ccccc1 [benzene] + CCCCn1cc[n+](C)c1.F[B-](F)(F)F | – | 1.5 ± 0.1 | 1.5 ± 0.1 | –
c1ccccc1 [benzene] + C[n+]1ccn(CCCC#N)c1.N#CN=C=[N-] | – | 2.2 ± 0.2 | – | 2.3 ± 0.2
c1ccccc1 [benzene] + C[n+]1ccn(CCCC#N)c1.O=S(=O)([N-]S(=O)(=O)C(F)(F)F)C(F)(F)F | – | 1.7 ± 0.1 | – | 1.8 ± 0.1
C1CCCCC1 [cyclohexane] + CCCCCCCCCCCCCCCC(=O)[O-].CCCCn1cc[n+](C)c1 | 0.9 ± 0.1 | – | – | –
C1CCCCC1 [cyclohexane] + CCCCCCCCCCCCCCCCCC(=O)[O-].CCCCn1cc[n+](C)c1 | 1.2 ± 0.1 | 1.1 ± 0.1 | – | –
C1CCCCC1 [cyclohexane] + CCCCCCCC[n+]1ccn(C)c1.F[B-](F)(F)F | – | 3.9 ± 0.3 | 5.3 ± 0.4 | –
C1CCCCC1 [cyclohexane] + CCCC[n+]1ccn(C)c1.O=S(=O)([N-]S(=O)(=O)C(F)(F)F)C(F)(F)F | – | 6.7 ± 0.5 | – | –
C1CCCCC1 [cyclohexane] + CCCCn1cc[n+](C)c1.F[B-](F)(F)F | – | 24.7 ± 1.7 | 30.7 ± 2.1 | –
C1CCCCC1 [cyclohexane] + C[n+]1ccn(CCCC#N)c1.N#CN=C=[N-] | – | 58.9 ± 4 | – | 81.7 ± 5.6
C1CCCCC1 [cyclohexane] + C[n+]1ccn(CCCC#N)c1.O=S(=O)([N-]S(=O)(=O)C(F)(F)F)C(F)(F)F | – | 45.9 ± 3.1 | – | 55.4 ± 3.8
CCO [ethanol] + CCCCCCCCCCCCCCCC(=O)[O-].CCCCn1cc[n+](C)c1 | 0.4 ± 0.1 | – | – | –
CCO [ethanol] + CCCCCCCCCCCCCCCCCC(=O)[O-].CCCCn1cc[n+](C)c1 | 0.4 ± 0.1 | 0.5 ± 0.1 | – | –
CCO [ethanol] + CCCCCCCC[n+]1ccn(C)c1.F[B-](F)(F)F | – | 0.4 ± 0.1 | 0.5 ± 0.1 | –
CCO [ethanol] + CCCC[n+]1ccn(C)c1.O=S(=O)([N-]S(=O)(=O)C(F)(F)F)C(F)(F)F | – | 1.2 ± 0.1 | – | –
CCO [ethanol] + CCCCn1cc[n+](C)c1.F[B-](F)(F)F | – | 1 ± 0.1 | 1.1 ± 0.1 | –
CCO [ethanol] + C[n+]1ccn(CCCC#N)c1.N#CN=C=[N-] | – | 0.4 ± 0.1 | – | 0.5 ± 0.1
CCO [ethanol] + C[n+]1ccn(CCCC#N)c1.O=S(=O)([N-]S(=O)(=O)C(F)(F)F)C(F)(F)F | – | 1.4 ± 0.1 | – | 1.7 ± 0.1
CCOC(C)=O [ethyl acetate] + CCCCCCCCCCCCCCCC(=O)[O-].CCCCn1cc[n+](C)c1 | 1 ± 0.1 | – | – | –
CCOC(C)=O [ethyl acetate] + CCCCCCCCCCCCCCCCCC(=O)[O-].CCCCn1cc[n+](C)c1 | 1.1 ± 0.1 | 1.1 ± 0.1 | – | –

SMILES | activity coefficient (333 K) | activity coefficient (323 K) | activity coefficient (298 K) | activity coefficient (303 K)
CCOC(C)=O [ethyl acetate] + CCCCCCCC[n+]1ccn(C)c1.F[B-](F)(F)F | – | 0.8 ± 0.1 | 0.9 ± 0.1 | –
CCOC(C)=O [ethyl acetate] + CCCC[n+]1ccn(C)c1.O=S(=O)([N-]S(=O)(=O)C(F)(F)F)C(F)(F)F | – | 0.7 ± 0.1 | – | –
CCOC(C)=O [ethyl acetate] + CCCCn1cc[n+](C)c1.F[B-](F)(F)F | – | 1.7 ± 0.1 | 1.8 ± 0.1 | –
CCOC(C)=O [ethyl acetate] + C[n+]1ccn(CCCC#N)c1.N#CN=C=[N-] | – | 2.7 ± 0.2 | – | 2.8 ± 0.2
CCOC(C)=O [ethyl acetate] + C[n+]1ccn(CCCC#N)c1.O=S(=O)([N-]S(=O)(=O)C(F)(F)F)C(F)(F)F | – | 2.1 ± 0.2 | – | 2.1 ± 0.2
CCCCCCC [heptane] + CCCCCCCCCCCCCCCC(=O)[O-].CCCCn1cc[n+](C)c1 | 1.4 ± 0.1 | – | – | –
CCCCCCC [heptane] + CCCCCCCCCCCCCCCCCC(=O)[O-].CCCCn1cc[n+](C)c1 | 1.5 ± 0.1 | 1.8 ± 0.1 | – | –
CCCCCCC [heptane] + CCCCCCCC[n+]1ccn(C)c1.F[B-](F)(F)F | – | 8.4 ± 0.6 | 11 ± 0.8 | –
CCCCCCC [heptane] + CCCC[n+]1ccn(C)c1.O=S(=O)([N-]S(=O)(=O)C(F)(F)F)C(F)(F)F | – | 15.5 ± 1.1 | – | –
CCCCCCC [heptane] + CCCCn1cc[n+](C)c1.F[B-](F)(F)F | – | 70.3 ± 4.8 | 83.5 ± 5.7 | –
CCCCCCC [heptane] + C[n+]1ccn(CCCC#N)c1.N#CN=C=[N-] | – | 197 ± 14 | – | 231 ± 16
CCCCCCC [heptane] + C[n+]1ccn(CCCC#N)c1.O=S(=O)([N-]S(=O)(=O)C(F)(F)F)C(F)(F)F | – | 126 ± 8.7 | – | 134 ± 9.2
C=CCCCC [hex-1-ene] + CCCCCCCCCCCCCCCC(=O)[O-].CCCCn1cc[n+](C)c1 | 1.1 ± 0.1 | – | – | –
C=CCCCC [hex-1-ene] + CCCCCCCCCCCCCCCCCC(=O)[O-].CCCCn1cc[n+](C)c1 | 1.2 ± 0.1 | 1.4 ± 0.1 | – | –
C=CCCCC [hex-1-ene] + CCCCCCCC[n+]1ccn(C)c1.F[B-](F)(F)F | – | 3.9 ± 0.3 | 4.9 ± 0.3 | –
C=CCCCC [hex-1-ene] + CCCC[n+]1ccn(C)c1.O=S(=O)([N-]S(=O)(=O)C(F)(F)F)C(F)(F)F | – | 6 ± 0.4 | – | –
C=CCCCC [hex-1-ene] + CCCCn1cc[n+](C)c1.F[B-](F)(F)F | – | 21.8 ± 1.5 | 25.8 ± 1.8 | –
C=CCCCC [hex-1-ene] + C[n+]1ccn(CCCC#N)c1.N#CN=C=[N-] | – | 60.4 ± 4.1 | – | 71.7 ± 4.9
C=CCCCC [hex-1-ene] + C[n+]1ccn(CCCC#N)c1.O=S(=O)([N-]S(=O)(=O)C(F)(F)F)C(F)(F)F | – | 47.1 ± 3.2 | – | 54.2 ± 3.7
CCCCCC [hexane] + CCCCCCCCCCCCCCCC(=O)[O-].CCCCn1cc[n+](C)c1 | 1.3 ± 0.1 | – | – | –
CCCCCC [hexane] + CCCCCCCCCCCCCCCCCC(=O)[O-].CCCCn1cc[n+](C)c1 | 1.4 ± 0.1 | 1.7 ± 0.1 | – | –
CCCCCC [hexane] + CCCCCCCC[n+]1ccn(C)c1.F[B-](F)(F)F | – | 6.7 ± 0.5 | 8.6 ± 0.6 | –
CCCCCC [hexane] + CCCC[n+]1ccn(C)c1.O=S(=O)([N-]S(=O)(=O)C(F)(F)F)C(F)(F)F | – | 12.8 ± 0.9 | – | –

SMILES | activity coefficient (333 K) | activity coefficient (323 K) | activity coefficient (298 K) | activity coefficient (303 K)
CCCCCC [hexane] + CCCCn1cc[n+](C)c1.F[B-](F)(F)F | – | 50.6 ± 3.5 | 65.9 ± 4.5 | –
CCCCCC [hexane] + C[n+]1ccn(CCCC#N)c1.N#CN=C=[N-] | – | 145 ± 9.9 | – | 213 ± 15
CCCCCC [hexane] + C[n+]1ccn(CCCC#N)c1.O=S(=O)([N-]S(=O)(=O)C(F)(F)F)C(F)(F)F | – | 113 ± 7.7 | – | 126 ± 8.6
CO [methanol] + CCCCCCCCCCCCCCCC(=O)[O-].CCCCn1cc[n+](C)c1 | 0.3 ± 0.1 | – | – | –
CO [methanol] + CCCCCCCCCCCCCCCCCC(=O)[O-].CCCCn1cc[n+](C)c1 | 0.3 ± 0.1 | 0.3 ± 0.1 | – | –
CO [methanol] + CCCCCCCC[n+]1ccn(C)c1.F[B-](F)(F)F | – | 0.3 ± 0.1 | 0.3 ± 0.1 | –
CO [methanol] + CCCC[n+]1ccn(C)c1.O=S(=O)([N-]S(=O)(=O)C(F)(F)F)C(F)(F)F | – | 0.8 ± 0.1 | – | –
CO [methanol] + CCCCn1cc[n+](C)c1.F[B-](F)(F)F | – | 0.7 ± 0.1 | 0.8 ± 0.1 | –
CO [methanol] + C[n+]1ccn(CCCC#N)c1.N#CN=C=[N-] | – | 0.3 ± 0.1 | – | 0.3 ± 0.1
CO [methanol] + C[n+]1ccn(CCCC#N)c1.O=S(=O)([N-]S(=O)(=O)C(F)(F)F)C(F)(F)F | – | 1 ± 0.1 | – | 1.1 ± 0.1
CC1CCCCC1 [methylcyclohexane] + CCCCCCCCCCCCCCCC(=O)[O-].CCCCn1cc[n+](C)c1 | 1 ± 0.1 | – | – | –
CC1CCCCC1 [methylcyclohexane] + CCCCCCCCCCCCCCCCCC(=O)[O-].CCCCn1cc[n+](C)c1 | 1.3 ± 0.1 | 1.3 ± 0.1 | – | –
CC1CCCCC1 [methylcyclohexane] + CCCCCCCC[n+]1ccn(C)c1.F[B-](F)(F)F | – | 5.3 ± 0.4 | 6.7 ± 0.5 | –
CC1CCCCC1 [methylcyclohexane] + CCCC[n+]1ccn(C)c1.O=S(=O)([N-]S(=O)(=O)C(F)(F)F)C(F)(F)F | – | 9.1 ± 0.6 | – | –
CC1CCCCC1 [methylcyclohexane] + CCCCn1cc[n+](C)c1.F[B-](F)(F)F | – | 35.5 ± 2.4 | 43.7 ± 3 | –
CC1CCCCC1 [methylcyclohexane] + C[n+]1ccn(CCCC#N)c1.N#CN=C=[N-] | – | 84.9 ± 5.8 | – | 118 ± 8.1
CC1CCCCC1 [methylcyclohexane] + C[n+]1ccn(CCCC#N)c1.O=S(=O)([N-]S(=O)(=O)C(F)(F)F)C(F)(F)F | – | 66.2 ± 4.5 | – | 75.1 ± 5.1
C=CCCCCCC [oct-1-ene] + CCCCCCCCCCCCCCCC(=O)[O-].CCCCn1cc[n+](C)c1 | 1.4 ± 0.1 | – | – | –
C=CCCCCCC [oct-1-ene] + CCCCCCCCCCCCCCCCCC(=O)[O-].CCCCn1cc[n+](C)c1 | 1.4 ± 0.1 | 1.7 ± 0.1 | – | –
C=CCCCCCC [oct-1-ene] + CCCCCCCC[n+]1ccn(C)c1.F[B-](F)(F)F | – | 6.6 ± 0.5 | 7.8 ± 0.5 | –
C=CCCCCCC [oct-1-ene] + CCCC[n+]1ccn(C)c1.O=S(=O)([N-]S(=O)(=O)C(F)(F)F)C(F)(F)F | – | 12.3 ± 0.8 | – | –
